What all share (assay): inhibition of tumour cell growth, NCI panel, 48 h
Assay [1] has as its system SK-MEL-28 melanoma.
Assay [2] deals with NCI-H460 lung.
Assay [3] deals with HCC-2998 colon.
The test system of assay [4] is RXF 393 renal.
Assay [5] deals with DU-145 prostate.
The test system of assay [6] is U251 CNS.
Assay [7] has as its system HOP-62 NSCLC.
Assay [8] concerns MALME-3M melanoma.
The test system of assay [9] is HL-60(TB) leukemia.
For assay [10], the system named is NCI-H522 lung.

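1) Cells in 96-well plates. 2) Compound, 48 h, 5 concentrations. 3) Linear interpolation between surrounding doses. 4) Unreached endpoint = highest concentration. TGI: concentration producing complete growth inhibition.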

As for `Cn1ncc2c(NCc3ccccc3)ncnc21`, the TGI in assay [1], in assay [2], in assay [3], in assay [4], in assay [5] and in [6] was greater than 100 µM throughout. In addition, the TGI in assay [7], in [8] and in assay [9] was greater than 100 µM each time.
Regarding `O=C(OCC(Cl)(Cl)Cl)N1CC[C@H](C2CCCCC2)C1`, the TGI stood at 35.1 µM in [2]; 34.3 µM in assay [3]; 36.8 µM in assay [4]; 32.5 µM in [10]; 31.8 µM in assay [5]; 13.6 µM in assay [6]. Also, in assay [7], the TGI amounted to 32.8 µM.
For the compound `COc1cc2c(cc1OCCCN1C(=O)c3cccc4cccc(c34)C1=O)N=C[C@@H]1CCCN1C2=O`, the TGI in [1] is greater than 100 µM; in [2] it was greater than 100 µM; in assay [3], greater than 100 µM; in [4], 34.2 µM; in assay [10] it was 27.9 µM; in [5], greater than 100 µM. The TGI was greater than 100 µM in assay [6], greater than 100 µM in [7] and 35.1 µM in [8].
Take `Cc1ccnc(NC(=S)Nc2ccc([N+](=O)[O-])cc2)c1`: the TGI in assay [1], in assay [2], in assay [3], in assay [4], in assay [5] and in assay [6] was greater than 100 µM in each case. For the same compound, the TGI in assay [7] and in [9] was greater than 100 µM throughout.
On to `Cc1c2c(c(C)n1-c1ccccc1)C(=O)N(CCN1CCN(c3cccc(C(F)(F)F)c3)CC1)C2=O`, for which the TGI in assay [2], in [3], in [4], in assay [10], in assay [5] and in assay [6] was greater than 100 µM each time. Further, the TGI in assay [7] and in assay [8] was greater than 100 µM throughout.
Turning to `COC(=O)c1ccccc1CC1Cc2cccc(C)c2C1=O` (stereo not given), the TGI in [1] is 94.5 µM; in assay [2], greater than 100 µM; in assay [3], greater than 100 µM; in assay [4], 63.7 µM; in [10] it was 57.2 µM; in [5] it was greater than 100 µM. In addition, the TGI in assay [6] is greater than 100 µM; in assay [7] it was greater than 100 µM; in [8] it was 48.3 µM.
As to `CSc1nc2c(c(N(C)C)n1)C(O)n1c(nc3ccccc31)S2` (stereo not given), the TGI was greater than 100 µM in assay [1]; greater than 100 µM in assay [2]; greater than 100 µM in [3]; 65.3 µM in assay [4]; 39.2 µM in [10]; greater than 100 µM in assay [5]. Also, the TGI in [6] is greater than 55.5 µM; in assay [7], 69.1 µM; in assay [8], greater than 100 µM.
In the case of `Cc1cc(OP2(=O)NCc3ncccc3O2)ccc1Cl` (stereo not given), the TGI in assay [1], in assay [2], in [3], in assay [4], in [5] and in [6] was greater than 100 µM in each case. In addition, the TGI in [7] was greater than 100 µM.
With `COc1ccc(CC(N)=O)cc1OC`, the TGI in assay [1], in assay [2], in assay [3], in [4], in assay [10] and in assay [6] was greater than 1250 µM each time. Besides, the TGI in [7], in assay [8] and in [9] was greater than 1250 µM throughout.
Regarding `CN1CCN(Cc2cc3c(nn2)-c2ccccc2C3=O)CC1`, the TGI was greater than 100 µM in [2]; greater than 100 µM in assay [4]; 64.3 µM in assay [10]; greater than 100 µM in assay [5]; greater than 100 µM in assay [6]; 39.2 µM in assay [8]. Besides, the TGI in assay [9] is 72.5 µM.
As for `CCCCOCCOC1=C(Cl)C(=O)c2c(O)ccc(O)c2C1=O`, the TGI in assay [1] was 1.23 µM; in [2] it was 3.48 µM; in assay [3], 6.01 µM; in assay [4], 0.668 µM; in [10] it was 1.33 µM; in assay [5] it was 3.08 µM. Besides, the results for the TGI in [6], in assay [7] and in [8] were 3.55 µM, 2.49 µM and 0.628 µM, respectively.
As to `CC(C)C1=CC23CCC4C(C)(C(=O)O)CCCC4(C)C2CC1C1C(=O)N(CCCCCCN2C(=O)C4C5CC6C7(C)CCCC(C)(C(=O)O)C7CCC6(C=C5C(C)C)C4C2=O)C(=O)C13` (stereo not given), the TGI in [1] was 23.6 µM; in [3], 27.1 µM; in [4], 28.3 µM; in assay [10] it was 26.6 µM; in assay [6] it was 15.7 µM; in [8], 31.2 µM. The compound further gave a TGI in [9] of 82.6 µM.
`C/C1=C\[C@H](C)C[C@H](C)OC(=O)[C@H](C)NC(=O)[C@@H](Cc2ccc(O)c(Br)c2)N(C)C(=O)[C@H](C)NC(=O)[C@@H](C)C1`: the TGI was greater than 10.6 µM in [1]; greater than 19.5 µM in [2]; greater than 25 µM in [3]; 0.858 µM in assay [4]; 1.35 µM in [10]; greater than 25 µM in assay [5]. For the same compound, the TGI in assay [6] was greater than 7.76 µM; in assay [7] it was 0.112 µM; in assay [8], 2.32 µM.
For `O=c1onc2n1-c1cc(Cl)ccc1C(=S)N1CSCC21` (stereo not given), the TGI in assay [1], in [2], in [3], in assay [4], in [10] and in assay [5] was greater than 100 µM in each case. Further, the TGI in assay [6], in assay [7] and in assay [8] was greater than 100 µM throughout.
Turning to `O[C@H]1[C@H](O)[C@@H](O)CN2CC[C@H](O)[C@H]12`, the TGI in assay [1], in assay [2], in assay [3], in assay [4], in assay [10] and in assay [6] was greater than 100 µM each time. For the same compound, the TGI in assay [7] is greater than 100 µM; in assay [8], greater than 100 µM; in assay [9] it was greater than 39.8 µM.
As for `O=C(CN1C(=O)CC(c2ccccc2)(c2ccccc2)C1=O)N1CCN(CCO)CC1`, the TGI in [1], in [3], in assay [4], in assay [10], in [5] and in assay [6] was greater than 100 µM throughout. Besides, the TGI in assay [7] is greater than 100 µM.
As to `Cc1cc(C)nc(NC(=S)Nc2ccc([N+](=O)[O-])cc2)c1`, the TGI in assay [1], in assay [2], in assay [3], in [4], in [5] and in assay [6] was greater than 100 µM each time. In addition, the TGI in assay [7] and in assay [9] was greater than 100 µM in each case.
As to `CCOC(=O)/C=C1/C(CCCOCc2ccccc2)C2CCCC23CC2(CCN13)OCCO2` (stereo not given), the TGI in [1] is 51.3 µM; in assay [2], 47.1 µM; in [3] it was greater than 100 µM; in assay [4], 37.5 µM; in assay [10], 31.3 µM; in assay [6], 51.4 µM. Moreover, the results for the TGI in [8] and in [9] were 33.9 µM and 30 µM, respectively.
Take `Nc1c(S(=O)(=O)c2ccc(Cl)cc2)c2nc3ccccc3nc2n2ccnc12`: the TGI in assay [1], in [2], in assay [3], in [10], in [6] and in [8] was greater than 100 µM each time. The same compound registered a TGI in assay [9] greater than 100 µM.
Turning to `O=C1NC(O)CCN1C1OC(CO)C(O)C1O` (stereo not given), the TGI in [1] was greater than 250 µM; in assay [2], greater than 250 µM; in assay [3], greater than 250 µM; in assay [4] it was greater than 250 µM; in [10] it was 247 µM; in assay [6], greater than 169 µM. Also, the TGI in [7], in [8] and in [9] was greater than 250 µM in each case.
Regarding `CSc1csc(-c2ccc(-c3ccc(-c4cc(SC)cs4)s3)s2)c1`, the TGI in assay [1], in assay [2], in assay [3], in assay [6], in assay [7] and in assay [8] was greater than 100 µM throughout.
Consider `CCN(CC)c1ccc(/C=C/c2ccnc3ccccc23)cc1`, for which the TGI in assay [1], in assay [2], in [3], in assay [4], in assay [5] and in [6] was greater than 100 µM throughout. Moreover, the TGI in assay [7], in assay [8] and in [9] was greater than 100 µM each time.
Turning to `CN1Cc2c(nc(-c3ccccc3)c[n+]2[O-])N(C)C1`, the TGI in [1], in [2], in assay [3], in assay [10], in assay [6] and in [7] was greater than 100 µM each time. The TGI in assay [8] and in assay [9] was greater than 100 µM each time.
Take `O=C1N(Cc2ccccc2)C2CSCC2N1Cc1ccccc1` (stereo not given): the TGI in assay [1] is greater than 100 µM; in assay [2] it was 55.8 µM; in assay [3] it was 62.9 µM; in assay [4], 69.4 µM; in assay [10] it was 24.2 µM; in assay [5], greater than 100 µM. Also, the TGI was greater than 100 µM in assay [6], 58.3 µM in assay [7] and 46.3 µM in [8].
Take `Clc1sc(Cl)c2c1[C@@H](Cl)C[C@@H]2Br`: the TGI in assay [1], in assay [2], in assay [3], in assay [4], in assay [10] and in assay [5] was greater than 100 µM in each case. In addition, the TGI in assay [6], in [7] and in [8] was greater than 100 µM in each case.
Turning to `COc1ccc2oc(=N)c(C(=O)Nc3ccccc3)cc2c1`, the TGI in assay [1] is greater than 100 µM; in assay [2] it was greater than 100 µM; in [4], 42.3 µM; in assay [10] it was 6.4 µM; in assay [5], greater than 100 µM; in assay [6] it was 55.1 µM. Further, the TGI in assay [7] worked out at 41.7 µM; in assay [8], 53.2 µM.
In the case of `N#CC(c1ccccc1)N(CCOCCOCCN(C(=O)c1ccccc1)C(C#N)c1ccccc1)C(=O)c1ccccc1` (stereo not given), the TGI in assay [1], in assay [2], in [3], in [4], in assay [5] and in assay [6] was greater than 100 µM throughout. Moreover, the TGI in [8] and in [9] was greater than 100 µM each time.
Regarding `CCc1n[nH]c(=O)n1-c1ccc2ccccc2c1`, the TGI in assay [1], in assay [2], in assay [3], in assay [4], in assay [10] and in assay [5] was greater than 100 µM throughout. In addition, the TGI in assay [6], in [7] and in assay [8] was greater than 100 µM in each case.
In the case of `CC1(C)CCc2c(ccc(C(=O)/C=C/c3ccc(O)cc3)c2O)O1`, the TGI in assay [1] worked out at 17 µM; in [2] it was 22.2 µM; in assay [4], 20.4 µM; in [5], 18.6 µM; in assay [6] it was 20.1 µM; in [7], 19.4 µM. In addition, the results for the TGI in assay [8] and in [9] were 16.3 µM and 44.2 µM, respectively.
As for `COc1cc(C2c3cc4c(cc3[C@@H](Nc3ccccc3)C3COC(=O)[C@H]23)OCO4)cc(OC)c1O` (stereo not given in full), the TGI stood at 23.1 µM in assay [1]; 2.86 µM in [2]; 3.35 µM in assay [3]; 6.8 µM in [4]; 3.7 µM in [10]; 0.671 µM in [7]. The TGI was found to be 8.65 µM in assay [8] and 1.09 µM in assay [9].
For `CCOC(=O)c1c2cccccc-2nc1Nc1cccc2c(C)ccnc12`, the TGI in assay [1], in assay [2], in assay [3], in assay [4], in [5] and in assay [6] was greater than 10 µM throughout. Besides, the TGI in [7], in assay [8] and in assay [9] was greater than 10 µM in each case.
